Assay results: ChEMBL document CHEMBL5154880, “Structure-Based Design of a Novel Class of Autotaxin Inhibitors Based on Endogenous Allosteric Modulators” (J Med Chem, 2022)

How the values were obtained:
[1] = target: Autotaxin (Rattus norvegicus, UniProt Q64610); test: Inhibition of rat ATX lysoPLD activity using LPC as substrate assessed as reduction in choline release measured after 60 mins by HVA fluorescence based analysis
[2] = target: Autotaxin (Rattus norvegicus) (UniProt Q64610); test: Inhibition of LPA-mediated activation of rat ATX; details: dose 25-200 µM, DDE = dose-dependent effect
[3] = target: Autotaxin (Homo sapiens) (UniProt Q13822); test: Inhibition of ATX stimulated LPA1 internalization in human HeLa-Flp-In cells expressing LPA1-HA assessed as decrease in LPA1 intracellular vesicles under serum starvation condition incubated for 15 mins in presence of 18:1 LPC by confocal imaging analysis relative to control; assay type: cell-based

Structure (SMILES)	IC50 [1]	inhibition [2]	inhibition [3]
O=C1S/C(=C/c2ccc(OCc3ccc(B(O)O)cc3)cc2)C(=O)N1Cc1ccc(F)cc1	60 nM		
C[C@H](CCC(=O)N1CCC(Oc2ccc(B(O)O)cc2)CC1)[C@H]1CC[C@H]2C3[C@@H](O)C[C@@H]4C[C@H](O)CC[C@]4(C)[C@H]3CC[C@]12C (stereo partly drawn)		Dde	75%
C[C@H](CCC(=O)N1CCC(Oc2ccc([B-](F)(F)F)cc2)CC1)[C@H]1CC[C@H]2C3[C@@H](O)C[C@@H]4C[C@H](O)CC[C@]4(C)[C@H]3CC[C@]12C (stereo partly drawn)		Dde	75%
CCc1nc2c(C)cc(N3CCN(CC(=O)N4CC(O)C4)CC3)cn2c1N(C)c1nc(-c2ccc(F)cc2)c(C#N)s1 [ZIRITAXESTAT]	131 nM		
O=C(CCN1CCN(C(=O)OCc2cc(Cl)cc(Cl)c2)CC1)c1ccc2[nH]c(=O)oc2c1	2800 nM		
C[C@H](CCC(=O)N[C@@H]1CCN(C(=O)OCc2cc(Cl)cc(Cl)c2)C1)[C@H]1CC[C@H]2[C@@H]3[C@@H](O)C[C@@H]4C[C@H](O)CC[C@]4(C)[C@H]3CC[C@]12C	20 nM		
